From patent US10738101B2, “Method for selecting odor-controlling substance” (Kao Corporation, priority 2015, dated 2020)

Experiments:
OR10G4 = biological target: T1, OR10G4 (Homo sapiens, UniProt Q8NGN3); assay: Luciferase reporter gene assay, OR10G4-expressing HEK293 cells; type: cell-based; conditions: FIG. 5A, 5C
T1 construct: expressed in transfected cells; host or cells: HEK293
T1 sequence (Q8NGN3 1-311): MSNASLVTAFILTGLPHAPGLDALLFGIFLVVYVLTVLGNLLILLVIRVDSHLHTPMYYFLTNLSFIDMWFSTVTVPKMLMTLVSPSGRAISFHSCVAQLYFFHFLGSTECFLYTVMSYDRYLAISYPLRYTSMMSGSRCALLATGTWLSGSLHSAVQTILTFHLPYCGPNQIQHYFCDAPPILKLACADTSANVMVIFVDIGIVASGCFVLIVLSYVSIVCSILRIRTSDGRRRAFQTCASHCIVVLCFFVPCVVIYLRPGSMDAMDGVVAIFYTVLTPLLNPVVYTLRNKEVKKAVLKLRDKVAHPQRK
From the text: On the basis of sequence information registered in GenBank, genes respectively encoding 370 human olfactory receptors shown in Tables 1-1 and 1-2 and genes respectively encoding the human olfactory receptors OR5AN1, OR10G4 and OR9Q2 (respectively set forth in SEQ ID NOS: 1, 3 and 5) were cloned. Each of the genes was cloned by the PCR using human genomic DNA person (G1521: Promega) as a template. Each gene amplified by the PCR was incorporated into a pENTR vector (Invitrogen) in accordance with the instruction, and was recombined to NotI and AscI sites produced downstream from a Flag-Rho tag sequence on a pME18S vector by using NotI and AscI sites present on the pENTR vector.
In 1) of Example 1, HEK293 cells on which the 370 human olfactory receptors were respectively expressed were produced. A reaction solution having a composition shown in Table 2 was prepared and allowed to stand still in a clean bench for 15 minutes, and the resultant was added by 4.4 μL per well in a 384-well plate (BioCoat). Subsequently, the HEK293 cells (20×10^4 cells/cm^2) were seeded by 40 μL per well, and the resultant was cultured for 24 hours in an incubator kept at 37° C. and 5% CO2.
In 2) of Example 1 and Examples 2 and 3, HEK293 cells in which the human olfactory receptor OR5AN1, OR10G4, OR9Q2 or OR1A1 was expressed were produced. A reaction solution having a composition shown in Table 3 was prepared and allowed to stand still in a clean bench for 15 minutes, and the resultant was added by 10 μL per well in a 96-well plate (BioCoat). Subsequently, the HEK293 cells (3×10^5 cells/cm^2) were seeded by 90 μL per well, and the resultant was cultured for 24 hours in an incubator kept at 37° C. and 5% CO2. Cells obtained under conditions for not expressing the olfactory receptor (Mock) were also prepared to be used as a control, and were used similarly in an experiment.
The olfactory receptor expressed on the HEK293 cells increases the intracellular cAMP amount by activating adenylate cyclase in conjugation with intracellular Gαs. In the measurement of odor response in this study, luciferase reporter gene assay for monitoring the increase of the intracellular cAMP amount as a luminescence value derived from a firefly luciferase gene (fluc2P-CRE-hygro) was employed. Besides, a fused Renilla luciferase (hRluc-CMV) gene was simultaneously transferred downstream of the CMV promoter, so as to be used as an internal standard for correcting the gene transfer efficiency or an error in the number of cells. […] Under each of various stimulation conditions, a value fLuc/hRluc obtained by dividing a firefly luciferase-derived luminescence value by a Renilla luciferase-derived luminescence value was calculated. […] A dose-response curve was analyzed using Graph Pad Prism. […]

odor of p-cresyl acetate = assay: Sensory test of cross-adaptation, target odor p-cresyl acetate; type: in vivo, human; conditions: panelists

In the case of `C[C@@H]1CCCCCCCCCCCCC(=O)C1` [muscone, (R)-3-methyl-1-cyclopentadecanone], the “responsiveness of OR10G4 (fold increase)” value (OR10G4) is reported as “do not have responsiveness” and the “cross-adaptation of p-cresyl acetate odor induced by test substance” value (odor of p-cresyl acetate) is reported as “did not induce the cross-adaptation”.
